According to US20260365653A1, “IRREVERSIBLE MUTEGFR INHIBITORS” (Bayer Aktiengesellschaft, priority 2022, published 2026):
“And” between values parts separate entries of the source, which are not always exact repeats. Identical values can stand only once.

Key:
BA/F3 (insSVD) cells = assay: Ba/F3-EGFR-insSVD cell survival assay (Cell Titer-Glo); type: cell-based; conditions: Mus musculus, BaF3, 48 h
Procedure, shortened: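 Ba/F3 cells stably expressing retroviral EGFR-insSVD or insSVD T790M, grown without IL-3 on 10 ng/ml EGF, 4000 cells/well. Compound pinned in, 48 h at 37° C. Viability by CellTiter-Glo luminescence.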

[1] = biological target: T1, mutEGFR (D770_N771insSVD) (Homo sapiens, UniProt P00533, DUP768-770); assay: Exon20-Mutant-EGFR (D770_N771insSVD) kinase assay (TR-FRET); type: biochemical
T1 construct: GST-EGFR #3 (SVD between D770 and N771); made in house; host or cells: Sf9 insect cells (baculovirus)

[2] = biological target: T2, mutEGFR (D770_N771insNPG, T790) (Homo sapiens, UniProt P00533, INS770NPG/T790M); assay: mutEGFR (D770_N771insNPG, T790) kinase assay; type: biochemical; conditions: Table 2a, D770_N771insNPG
T2 construct: exact insNPG construct not described; in-house EGFR proteins were N-terminal GST fusions from baculovirus/insect cells (borders R669-A1210 given only for WT, insSVD, insASV)
Excerpt: The different EGFR proteins used in the biochemical kinase activity inhibition assays were generated inhouse by expression in insect cells using Baculo Virus system and subsequent purification as described in the following paragraphs.
The cDNAs encoding the various protein sequences from human EGFR human (P00533) were optimized for expression in eukaryotic cells and synthesized by the GeneArt Technology at Life Technologies.

[3] = Table 3a, cell survival, Cell Titer-Glo, with 10 ng/ml EGF, without IL-3
[4] = mutEGFR (D770_N771insSVD) kinase assay IC50, Table 2a, D770_N771insSVD, 2 mM ATP
[5] = mutEGFR (D770_N771insSVD) kinase assay IC50, Table 2b (from US Priority Patent Application), mutEGFR D770_N771insSVD

T1 sequence (P00533 with tags, fused parts or gaps DUP768-770): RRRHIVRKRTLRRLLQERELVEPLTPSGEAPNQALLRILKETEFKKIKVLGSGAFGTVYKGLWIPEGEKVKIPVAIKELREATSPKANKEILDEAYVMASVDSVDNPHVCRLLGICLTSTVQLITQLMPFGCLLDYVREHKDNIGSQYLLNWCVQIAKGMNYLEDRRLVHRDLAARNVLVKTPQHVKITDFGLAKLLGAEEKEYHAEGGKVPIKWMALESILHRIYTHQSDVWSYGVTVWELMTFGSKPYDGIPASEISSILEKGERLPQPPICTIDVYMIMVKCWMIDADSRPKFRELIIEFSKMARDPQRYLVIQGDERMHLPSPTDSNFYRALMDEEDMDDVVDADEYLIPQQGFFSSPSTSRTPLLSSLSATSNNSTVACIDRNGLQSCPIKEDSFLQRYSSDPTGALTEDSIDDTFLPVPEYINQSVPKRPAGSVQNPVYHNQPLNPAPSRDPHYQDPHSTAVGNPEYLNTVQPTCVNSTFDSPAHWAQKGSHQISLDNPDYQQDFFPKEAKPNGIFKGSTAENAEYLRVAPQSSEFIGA
T2 sequence (P00533 with tags, fused parts or gaps INS770NPG/T790M limits assumed): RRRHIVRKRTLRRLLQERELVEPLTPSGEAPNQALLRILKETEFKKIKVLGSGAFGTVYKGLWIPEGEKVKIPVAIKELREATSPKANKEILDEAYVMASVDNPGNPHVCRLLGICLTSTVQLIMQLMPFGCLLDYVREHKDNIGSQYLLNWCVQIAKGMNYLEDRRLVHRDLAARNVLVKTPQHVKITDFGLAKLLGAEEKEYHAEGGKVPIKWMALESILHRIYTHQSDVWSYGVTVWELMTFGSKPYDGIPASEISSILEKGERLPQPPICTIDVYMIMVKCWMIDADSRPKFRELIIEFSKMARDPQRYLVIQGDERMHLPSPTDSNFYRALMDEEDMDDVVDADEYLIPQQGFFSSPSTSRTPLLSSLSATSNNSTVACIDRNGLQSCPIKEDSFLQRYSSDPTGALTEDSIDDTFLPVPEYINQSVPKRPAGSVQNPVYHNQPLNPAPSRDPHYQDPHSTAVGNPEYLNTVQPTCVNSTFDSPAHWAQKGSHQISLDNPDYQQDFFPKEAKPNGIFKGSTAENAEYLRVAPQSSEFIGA

Compound	IC50 (BA/F3 (insSVD) cells; [3]) [nM]	IC50 (BA/F3 (insSVD) cells; Table 3b, Ba/F3 EGFR-insSVD) [nM]	IC50 [1, 4] [nM]	IC50 [1, 5] [nM]	IC50 [2]
CN(C)C/C=C/C(=O)N1CCn2nc(-c3ccc(F)cc3)c(-c3ccnc(Nc4ccccc4)c3)c2C1 [Example 21, (2E)-1-[3-(2-anilinopyridin-4-yl)-2-(4-fluorophenyl)-6,7-dihydropyrazolo[1,5-a]pyrazin-5(4H)-yl]-4-(dimethylamino)but-2-en-1-one]	101	101	1.17	1.17	4.45 nM
C=CC(=O)N1CCn2nc(-c3ccc(F)cc3)c(-c3ccnc4[nH]ccc34)c2C1 [Example 22, 1-[2-(4-fluorophenyl)-3-(1H-pyrrolo[2,3-b]pyridin-4-yl)-6,7-dihydropyrazolo[1,5-a]pyrazin-5(4H)-yl]prop-2-en-1-one]	62	62	5.12	5.12	3.34 nM
C/C=C/C(=O)N1CCn2nc(-c3ccc(F)cc3)c(-c3ccncc3)c2C1 [Example 23, (2E)-1-[2-(4-fluorophenyl)-3-(pyridin-4-yl)-6,7-dihydropyrazolo[1,5-a]pyrazin-5(4H)-yl]but-2-en-1-one]	3850	–	208	208	804 nM
C=C(C)C(=O)N1CCn2nc(-c3ccc(F)cc3)c(-c3ccncc3)c2C1 [Example 24, 1-[2-(4-fluorophenyl)-3-(pyridin-4-yl)-6,7-dihydropyrazolo[1,5-a]pyrazin-5(4H)-yl]-2-methylprop-2-en-1-one]	9980	–	1150	1150	14600 nM and > 20000 nM
CN(C)C/C=C/C(=O)N1CCn2nc(-c3ccc(Cl)c(F)c3)c(-c3ccncc3)c2C1 [Example 25, (2E)-1-[2-(4-chloro-3-fluorophenyl)-3-(pyridin-4-yl)-6,7-dihydropyrazolo[1,5-a]pyrazin-5(4H)-yl]-4-(dimethylamino)but-2-en-1-one]	62.3	–	0.6	–	2.12 nM
CN(C)C/C=C/C(=O)N1CCn2nc(-c3ccc(Cl)cc3F)c(-c3ccncc3)c2C1 [Example 26, (2E)-1-[2-(4-chloro-2-fluorophenyl)-3-(pyridin-4-yl)-6,7-dihydropyrazolo[1,5-a]pyrazin-5(4H)-yl]-4-(dimethylamino)but-2-en-1-one]	70.3	–	1.26	–	3.3 nM
COc1ccc(-c2nn3c(c2-c2ccncc2)CN(C(=O)/C=C/CN(C)C)CC3)cc1Cl [Example 27, (2E)-1-[2-(3-chloro-4-methoxyphenyl)-3-(pyridin-4-yl)-6,7-dihydropyrazolo[1,5-a]pyrazin-5(4H)-yl]-4-(dimethylamino)but-2-en-1-one]	679	–	3.77	–	3.02 nM
COc1ccccc1-c1nn2c(c1-c1ccncc1)CN(C(=O)/C=C/CN(C)C)CC2 [Example 28, (2E)-4-(dimethylamino)-1-[2-(2-methoxyphenyl)-3-(pyridin-4-yl)-6,7-dihydropyrazolo[1,5-a]pyrazin-5(4H)-yl]but-2-en-1-one]	3980	–	70.2	–	35.2 nM
CN(C)C/C=C/C(=O)N1CCn2nc(-c3ccc(Cl)c(Cl)c3)c(-c3ccncc3)c2C1 [Example 29, (2E)-1-[2-(3,4-dichlorophenyl)-3-(pyridin-4-yl)-6,7-dihydropyrazolo[1,5-a]pyrazin-5(4H)-yl]-4-(dimethylamino)but-2-en-1-one]	422	–	1.19	–	1.54 nM
COc1ccc(-c2nn3c(c2-c2ccncc2)CN(C(=O)/C=C/CN(C)C)CC3)cc1 [Example 30, (2E)-4-(dimethylamino)-1-[2-(4-methoxyphenyl)-3-(pyridin-4-yl)-6,7-dihydropyrazolo[1,5-a]pyrazin-5(4H)-yl]but-2-en-1-one]	1080	–	7.25	–	23.7 nM
COc1ccc(-c2nn3c(c2-c2ccncc2)CN(C(=O)/C=C/CN(C)C)CC3)cc1F [Example 31, (2E)-4-(dimethylamino)-1-[2-(3-fluoro-4-methoxyphenyl)-3-(pyridin-4-yl)-6,7-dihydropyrazolo[1,5-a]pyrazin-5(4H)-yl]but-2-en-1-one]	874	–	4.05	–	18.8 nM
